For six compounds, inhibition and IC50 results are on record in ChEMBL document CHEMBL3632512, “Inhibition of 3-deoxy-D-arabino-heptulosonate 7-phosphate synthase from Mycobacterium tuberculosis: in silico screening and in vitro validation” (Eur J Med Chem, 2015).

Assay [1] concerns Mycobacterium tuberculosis. Kind of assay: Inhibition of Mycobacterium tuberculosis MTCC 300 DAH7PS expressed in Escherichia coli BL21 (DE3) using 25 to 125 uM PEP/100 uM E4P as substrate up to 50 nM by spectrophotometric analysis.
Assay [2] deals with Mycobacterium tuberculosis. In words: Inhibition of Mycobacterium tuberculosis MTCC 300 DAH7PS expressed in Escherichia coli BL21 (DE3) using 25 to 125 uM PEP/100 uM E4P as substrate at 10 uM by spectrophotometric analysis relative to control.
Assay [3] deals with Mycobacterium tuberculosis. In words: (§1) Inhibition of Mycobacterium tuberculosis MTCC 300 DAH7PS expressed in Escherichia coli BL21 (DE3) using 25 to 125 uM PEP/100 uM E4P as substrate by spectrophotometric analysis.
Assay [4] is described as follows: as §1.

pIC50: −log10 of the molar value. The source made the active and inactive calls. The calls are words filed in the database; no cut-off is given here.

In general, inhibition refers to the share of the control response that was lost under treatment. Usually pIC50 stands for the negative decadic logarithm of the IC50, by convention in mol/L. Regarding `O=Cc1cccnc1` [NICOTINALDEHYDE], in assay [1], the inhibition result is “inactive”. Moreover, the inhibition in assay [2] was 16%; in assay [3] it was “Dose-dependent effect”. The negative logarithm of the IC50 (pIC50) in assay [4] was 4.27.
For `N[C@@H](Cc1ccc(O)cc1)C(=O)O` [TYROSINE], the inhibition in assay [2] was 41%. In assay [4], the pIC50 was 4.89.
Turning to `C[C@@H]1O[C@@H](OC[C@H]2O[C@@H](Oc3c(-c4ccc(O)c(O)c4)oc4cc(O)cc(O)c4c3=O)[C@H](O)[C@@H](O)[C@@H]2O)[C@H](O)[C@H](O)[C@H]1O` [RUTIN], the inhibition entry in assay [1] was “inactive”. Moreover, the results for the inhibition in assay [2] and in assay [3] were 17% and “Dose-dependent effect”, respectively. In assay [4], this compound had a negative-log IC50 (pIC50) of 4.38.
With `O=C(/C=C/c1ccc(O)c(O)c1)O[C@@H]1C[C@](O)(C(=O)O)C[C@@H](O)[C@H]1O` [CHLOROGENIC ACID], the inhibition result in assay [1] is “inactive”. The compound also showed an inhibition in assay [2] of 9%. This compound also showed a negative logarithm of the IC50 (pIC50) in assay [4] of 3.54.
As to `Cc1c(C)c2c(c(C)c1O)CC[C@@](C)(CCC[C@H](C)CCC[C@H](C)CCCC(C)C)O2` [ALPHA-TOCOPHEROL], in assay [1], the inhibition result is “inactive”. The inhibition was 21% in assay [2] and “Dose-dependent effect” in assay [3]. For the same compound, in assay [4], the negative logarithm of the IC50 (pIC50) was 4.68.
With `C[C@]1(O)CC[C@@H]2C(C(=O)O)=CO[C@@H](O[C@@H]3O[C@H](CO)[C@@H](O)[C@H](O)[C@H]3OC(=O)c3ccc(O)cc3)[C@@H]21` [NEGUNDOSIDE], in assay [1], the inhibition entry is “inactive”. Moreover, the inhibition in assay [2] came out at 8%. The same compound showed a pIC50 in assay [4] of 3.80.
